Source: patent US9938273B2 (Plexxikon Inc., priority 2015, dated 2018)
pIC50: −log10 of the molar value.

How the values were obtained:
FLT3-ITD = biological target: T1, FLT3-ITD (Homo sapiens, UniProt P36888); test: AlphaScreen kinase assay with recombinant enzyme, FLT3-ITD; assay type: biochemical; settings: 8pt; read-out: FLT3_ITD 8pt: IC50
T1 sequence (P36888 1-993): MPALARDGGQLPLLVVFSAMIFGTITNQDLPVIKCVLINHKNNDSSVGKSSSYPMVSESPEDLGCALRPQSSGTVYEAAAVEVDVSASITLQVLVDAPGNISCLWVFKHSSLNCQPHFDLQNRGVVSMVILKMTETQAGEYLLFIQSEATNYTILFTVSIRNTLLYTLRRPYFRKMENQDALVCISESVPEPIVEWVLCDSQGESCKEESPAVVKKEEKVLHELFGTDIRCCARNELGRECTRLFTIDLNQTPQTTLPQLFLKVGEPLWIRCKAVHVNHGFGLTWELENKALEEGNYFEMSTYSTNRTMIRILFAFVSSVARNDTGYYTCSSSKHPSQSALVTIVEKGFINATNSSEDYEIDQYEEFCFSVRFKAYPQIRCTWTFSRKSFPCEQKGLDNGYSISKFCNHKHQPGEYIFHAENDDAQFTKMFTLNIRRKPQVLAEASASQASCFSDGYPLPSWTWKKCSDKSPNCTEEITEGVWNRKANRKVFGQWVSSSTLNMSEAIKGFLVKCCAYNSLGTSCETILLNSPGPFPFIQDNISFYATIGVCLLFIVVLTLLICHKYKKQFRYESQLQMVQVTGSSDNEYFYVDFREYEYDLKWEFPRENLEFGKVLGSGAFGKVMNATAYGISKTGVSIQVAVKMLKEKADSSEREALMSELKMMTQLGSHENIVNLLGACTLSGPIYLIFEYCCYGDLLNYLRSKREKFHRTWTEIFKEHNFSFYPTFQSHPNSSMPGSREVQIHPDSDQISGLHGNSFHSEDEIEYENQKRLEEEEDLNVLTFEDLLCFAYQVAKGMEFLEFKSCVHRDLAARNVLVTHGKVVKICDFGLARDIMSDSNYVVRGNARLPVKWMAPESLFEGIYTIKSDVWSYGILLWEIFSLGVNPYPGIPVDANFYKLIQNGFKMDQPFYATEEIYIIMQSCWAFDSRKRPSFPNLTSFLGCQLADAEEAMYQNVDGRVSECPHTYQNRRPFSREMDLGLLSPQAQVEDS
In short: (§1)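 Tyrosine phosphorylation of biotin-poly(Glu4-Tyr) substrate by recombinant enzyme is detected with PY20 acceptor and streptavidin donor beads after room-temperature incubations of 20 and 60 min. IC50 values were derived at a final 10 μM (FLT3-D835Y, FLT3-ITD) or 100 μM (c-KIT).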

FLT3-D835Y = biological target: T2, FLT3-D835Y (Homo sapiens, UniProt P36888, D835Y); test: AlphaScreen kinase assay with recombinant enzyme, FLT3-D835Y; assay type: biochemical; settings: 8pt, GMean
T2 construct: purchased Invitrogen PV3967
T2 sequence (P36888 27-993 D835Y): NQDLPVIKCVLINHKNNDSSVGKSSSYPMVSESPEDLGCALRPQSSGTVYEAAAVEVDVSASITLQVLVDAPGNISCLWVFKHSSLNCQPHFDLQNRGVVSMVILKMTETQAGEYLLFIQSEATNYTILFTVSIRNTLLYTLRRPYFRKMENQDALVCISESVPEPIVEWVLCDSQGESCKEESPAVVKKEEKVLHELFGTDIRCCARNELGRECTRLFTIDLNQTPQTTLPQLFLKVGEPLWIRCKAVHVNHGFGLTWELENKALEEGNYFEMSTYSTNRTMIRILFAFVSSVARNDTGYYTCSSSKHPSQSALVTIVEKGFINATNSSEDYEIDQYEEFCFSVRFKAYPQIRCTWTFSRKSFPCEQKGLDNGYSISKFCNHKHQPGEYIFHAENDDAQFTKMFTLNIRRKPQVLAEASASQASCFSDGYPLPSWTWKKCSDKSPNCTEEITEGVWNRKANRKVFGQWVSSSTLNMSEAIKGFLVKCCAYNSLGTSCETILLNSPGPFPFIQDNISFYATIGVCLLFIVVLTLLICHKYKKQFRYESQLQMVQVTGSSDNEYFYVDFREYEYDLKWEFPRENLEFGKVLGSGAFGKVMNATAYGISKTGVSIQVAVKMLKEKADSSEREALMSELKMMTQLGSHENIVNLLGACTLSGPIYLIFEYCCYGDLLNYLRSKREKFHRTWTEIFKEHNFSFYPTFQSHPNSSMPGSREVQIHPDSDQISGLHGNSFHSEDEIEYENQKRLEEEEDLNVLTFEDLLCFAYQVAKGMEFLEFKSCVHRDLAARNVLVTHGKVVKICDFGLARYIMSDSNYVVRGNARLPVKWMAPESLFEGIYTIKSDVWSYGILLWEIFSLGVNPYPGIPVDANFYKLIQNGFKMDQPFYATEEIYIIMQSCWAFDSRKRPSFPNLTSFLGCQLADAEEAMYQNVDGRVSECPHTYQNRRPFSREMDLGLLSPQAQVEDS
In short: as §1

## O=C(c1cccc(-c2cnc3[nH]c(-c4ccccc4)cc3c2)n1)N1CCCC(O)C1 (stereo not shown) [Compound P-0069, (3-hydroxy-1-piperidyl)-[6-(2-phenyl-1H-pyrrolo[2,3-b]pyridin-5-yl)-2-pyridyl]methanone]
FLT3-ITD
  pIC50: 5.00 to 10.00
FLT3-D835Y
  pIC50: 5.00 to 10.00

## NC1CCN(c2cccc3ccc(-c4cnc5[nH]c(-c6ccccc6)cc5c4)nc23)CC1 [Compound P-0034, 1-[2-(2-phenyl-1H-pyrrolo[2,3-b]pyridin-5-yl)-8-quinolyl]piperidin-4-amine]
FLT3-ITD
  pIC50: 5.00 to 10.00
FLT3-D835Y
  pIC50: 5.00 to 10.00

## NC1CCCN(C(=O)c2cccc(-c3cnc4[nH]c(-c5ccccc5)cc4c3)n2)C1 (stereo not shown) [Compound P-0067, (3-amino-1-piperidyl)-[6-(2-phenyl-1H-pyrrolo[2,3-b]pyridin-5-yl)-2-pyridyl]methanone]
FLT3-ITD
  pIC50: 5.00 to 10.00
FLT3-D835Y
  pIC50: 5.00 to 10.00

## Cc1ccc(-c2cnc3[nH]c(-c4ccccc4)cc3c2)cc1C(=O)N1CCC(N)CC1 [Compound P-0035, (4-amino-1-piperidyl)-[2-methyl-5-(2-phenyl-1H-pyrrolo[2,3-b]pyridin-5-yl)phenyl]methanone]
FLT3-ITD
  pIC50: 5.00 to 10.00
FLT3-D835Y
  pIC50: 5.00 to 10.00

## CS(=O)(=O)NC1CCN(C(=O)c2cccc(-c3cnc4[nH]c(-c5ccccc5)cc4c3)n2)CC1 [Compound P-0032, N-[1-[6-(2-phenyl-1H-pyrrolo[2,3-b]pyridin-5-yl)pyridine-2-carbonyl]-4-piperidyl]methanesulfonamide]
FLT3-ITD
  pIC50: 5.00 to 10.00
FLT3-D835Y
  pIC50: 5.00 to 10.00

## CON(C)C(=O)c1cccc(-c2cnc3[nH]c(-c4ccccc4)cc3c2)c1 [Compound P-0002, N-methoxy-N-methyl-3-(2-phenyl-1H-pyrrolo[2,3-b]pyridin-5-yl)benzamide]
FLT3-ITD
  pIC50: 5.00 to 10.00
FLT3-D835Y
  pIC50: 5.00 to 10.00

## NC1CCN(C(=O)c2c[nH]c3ccc(-c4cnc5[nH]c(-c6ccccc6)cc5c4)cc23)CC1 [Compound P-0042, (4-amino-1-piperidyl)-[5-(2-phenyl-1H-pyrrolo[2,3-b]pyridin-5-yl)-1H-indol-3-yl]methanone]
FLT3-ITD
  pIC50: 5.00 to 10.00
FLT3-D835Y
  pIC50: 5.00 to 10.00

## NC1CCC(C(=O)N2Cc3c(cccc3-c3cnc4[nH]c(-c5ccccc5)cc4c3)C2=O)C1 (stereo not shown) [Compound P-0047, 2-(3-aminocyclopentanecarbonyl)-4-(2-phenyl-1H-pyrrolo[2,3-b]pyridin-5-yl)isoindolin-1-one]
FLT3-ITD
  pIC50: 5.00 to 10.00
FLT3-D835Y
  pIC50: 5.00 to 10.00

## O=C(NC1CCNCC1)c1n[nH]c2ccc(-c3cnc4[nH]c(-c5ccccc5)cc4c3)cc12 [Compound P-0039, 5-(2-phenyl-1H-pyrrolo[2,3-b]pyridin-5-yl)-N-(4-piperidyl)-1H-indazole-3-carboxamide]
FLT3-ITD
  pIC50: 5.00 to 10.00
FLT3-D835Y
  pIC50: 5.00 to 10.00

## N[C@H]1CCN(C(=O)c2cccc(-c3cnc4[nH]c(-c5ccccc5)cc4c3)c2)C1 [Compound P-0036, [(3S)-3-aminopyrrolidin-1-yl]-[3-(2-phenyl-1H-pyrrolo[2,3-b]pyridin-5-yl)phenyl]methanone]
FLT3-ITD
  pIC50: 5.00 to 10.00
FLT3-D835Y
  pIC50: 5.00 to 10.00

## CNC1CCN(C(=O)c2n[nH]c3ccc(-c4cnc5[nH]c(-c6ccccc6)cc5c4)cc23)CC1 [Compound P-0044, [4-(methylamino)-1-piperidyl]-[5-(2-phenyl-1H-pyrrolo[2,3-b]pyridin-5-yl)-1H-indazol-3-yl]methanone]
FLT3-ITD
  pIC50: 5.00 to 10.00
FLT3-D835Y
  pIC50: 5.00 to 10.00

## NC1CCN(C(=O)c2cc(-c3cnc4[nH]c(-c5ccccc5)cc4c3)ccn2)CC1 [Compound P-0038, (4-amino-1-piperidyl)-[4-(2-phenyl-1H-pyrrolo[2,3-b]pyridin-5-yl)-2-pyridyl]methanone]
FLT3-ITD
  pIC50: 5.00 to 10.00
FLT3-D835Y
  pIC50: 5.00 to 10.00

## Cc1ccc(-c2cnc3[nH]c(-c4ccccc4)cc3c2)nc1C(=O)N1CCC(N)CC1 [Compound P-0033, (4-amino-1-piperidyl)-[3-methyl-6-(2-phenyl-1H-pyrrolo[2,3-b]pyridin-5-yl)-2-pyridyl]methanone]
FLT3-ITD
  pIC50: 5.00 to 10.00
FLT3-D835Y
  pIC50: 5.00 to 10.00

## CC1(N)CCCN(C(=O)c2cccc(-c3cnc4[nH]c(-c5ccccc5)cc4c3)n2)C1 (stereo not shown) [Compound P-0082, (3-amino-3-methyl-1-piperidyl)-[6-(2-phenyl-1H-pyrrolo[2,3-b]pyridin-5-yl)-2-pyridyl]methanone]
FLT3-ITD
  pIC50: 5.00 to 10.00
FLT3-D835Y
  pIC50: 5.00 to 10.00

## CNC1CCN(Cc2cccc(-c3cnc4[nH]c(-c5ccccc5)cc4c3)n2)C1 (stereo not shown) [Compound P-0087, N-methyl-1-[[6-(2-phenyl-1H-pyrrolo[2,3-b]pyridin-5-yl)-2-pyridyl]methyl]pyrrolidin-3-amine]
FLT3-ITD
  pIC50: 5.00 to 10.00
FLT3-D835Y
  pIC50: 5.00 to 10.00

## O=C(c1cccc(-c2cnc3[nH]c(-c4ccccc4)cc3c2)n1)N1CCC(F)(F)CC1 [Compound P-0089, (4,4-difluoro-1-piperidyl)-[6-(2-phenyl-1H-pyrrolo[2,3-b]pyridin-5-yl)-2-pyridyl]methanone]
FLT3-ITD
  pIC50: 5.00 to 10.00
FLT3-D835Y
  pIC50: 4.00 to 4.30

## N[C@H]1CCN(C(=O)c2csc(-c3cnc4[nH]c(-c5ccccc5)cc4c3)n2)C1 [Compound P-0048, [(3S)-3-aminopyrrolidin-1-yl]-[2-(2-phenyl-1H-pyrrolo[2,3-b]pyridin-5-yl)thiazol-4-yl]methanone]
FLT3-ITD
  pIC50: 5.00 to 10.00
FLT3-D835Y
  pIC50: 4.30 to 5.00

## O=C(c1cccc(-c2cnc3[nH]c(-c4ccccc4)cc3c2)n1)N1CCC(O)C1 (stereo not shown) [Compound P-0068, (3-hydroxypyrrolidin-1-yl)-[6-(2-phenyl-1H-pyrrolo[2,3-b]pyridin-5-yl)-2-pyridyl]methanone]
FLT3-ITD
  pIC50: 5.00 to 10.00
FLT3-D835Y
  pIC50: 5.00 to 10.00

## NC1CN(C(=O)c2n[nH]c3ccc(-c4cnc5[nH]c(-c6ccccc6)cc5c4)cc23)C1 [Compound P-0029, (3-aminoazetidin-1-yl)-[5-(2-phenyl-1H-pyrrolo[2,3-b]pyridin-5-yl)-1H-indazol-3-yl]methanone]
FLT3-ITD
  pIC50: 5.00 to 10.00
FLT3-D835Y
  pIC50: 5.00 to 10.00

## c1ccc(-c2cc3cc(-c4ccc5[nH]nc(NC6CCNCC6)c5c4)cnc3[nH]2)cc1 [Compound P-0056, 5-(2-phenyl-1H-pyrrolo[2,3-b]pyridin-5-yl)-N-(4-piperidyl)-1H-indazol-3-amine]
FLT3-ITD
  pIC50: 5.00 to 10.00
FLT3-D835Y
  pIC50: 5.00 to 10.00

## CC(=O)NC1CCN(C(=O)c2cccc(-c3cnc4[nH]c(-c5ccc(F)cc5)cc4c3)c2)CC1 [Compound P-0001, N-[1-[3-[2-(4-fluorophenyl)-1H-pyrrolo[2,3-b]pyridin-5-yl]benzoyl]-4-piperidyl]acetamide]
FLT3-ITD
  pIC50: 4.30 to 5.00
FLT3-D835Y
  pIC50: 4.30 to 5.00

## c1ccc(-c2cc3cc(-c4ccc5[nH]nc(NC6CNC6)c5c4)cnc3[nH]2)cc1 [Compound P-0053, N-(azetidin-3-yl)-5-(2-phenyl-1H-pyrrolo[2,3-b]pyridin-5-yl)-1H-indazol-3-amine]
FLT3-ITD
  pIC50: 5.00 to 10.00
FLT3-D835Y
  pIC50: 5.00 to 10.00

## COC(=O)C1(C)CCN(C(=O)c2cccc(-c3cnc4[nH]c(-c5ccccc5)cc4c3)n2)CC1 [Compound P-0092, methyl 4-methyl-1-[6-(2-phenyl-1H-pyrrolo[2,3-b]pyridin-5-yl)pyridine-2-carbonyl]piperidine-4-carboxylate]
FLT3-ITD
  pIC50: 5.00 to 10.00
FLT3-D835Y
  pIC50: 5.00 to 10.00
